Where two headings read alike, the source gives them in different places.
Tested on: NIH3T3
Test: NIH3T3 proliferation, BrdU uptake
Assay type: cell-based
Settings: Mus musculus
Description: Cells were depleted of fetal calf serum (FCS) for 12 hours. They were then stimulated to proliferate by addition of ConA (10 μg/ml) for PBMC from healthy individuals and for Jurkat cells, FCS (10%) for HEK293 and A375 cells, PDGF (30 ng/ml) for NIH 3T3 cells, and EGF (30 ng/ml) for MDA-MB-231, Cells (1×10^5) were cultured in 96-well plates for 3 days in the presence or absence of inhibitors at the concentrations specified in the text. Each condition was tested in duplicate wells.
Proliferation was assessed by BrdU incorporation using a colorimetric ELISA kit (Roche, Germany). Subsequent to labeling with 10 μM BrdU, DNA was denatured and the cells were incubated with anti-BrdU-POD, prior to the addition of colorimetric substrate (TMB). The reaction product was quantified by measuring absorbance at 450 nm in an ELISA plate reader (ELx800 BIO-TEK Instruments Inc.).
To characterize the mode of action of 2 (S101) in more detail, we first examined whether 2 inhibits non-hematopoietic cell lines. We studied the effect of 2 on the growth of four cell lines: NIH 3T3 (mouse embryonic fibroblasts), A-431 (human vulval carcinoma cells), MDA-MB-468 (human breast carcinoma cells), and PANC-1 (human pancreatic carcinoma cells) (FIGS. 1A-B). We also tested the inhibitors on human keratinocytes. […]

## COc1cc(-c2nc(Nc3ccc(C)cc3)c3ccccc3n2)cc(OC)c1OC [Compound 2, N-p-tolyl-2-(3,4,5-trimethoxyphenyl)quinazolin-4-amine]
NIH3T3, PDGF (30 ng/ml) activated, read-out: IC50 of stimulated cells
  IC50: ~7 µM
NIH3T3, non-stimulated, read-out: IC50 of non-stimulated cells
  IC50: ~3 µM
